Measured values as given in the supplement of paper PMC5770543.
± gives the standard deviation.

How the values were obtained:
[1] = tested on: Plasmodium falciparum 3D7; assay: EC50 growth inhibition (60 h, SYBR Green); settings: stage: ring-stage start
[2] = tested on: Toxoplasma gondii RH tachyzoites; assay: % growth inhibition vs DMSO (48 h luciferase); higher = more inhibition; settings: 10 µM
[3] = tested on: Plasmodium falciparum 3D7; assay: % inhibition of schizont-to-ring transition vs DMSO; higher = more inhibition
Procedure, shortened: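 Schizont-to-ring transition inhibition compares new ring formation with that in vehicle controls. Synchronised P. falciparum schizonts (about 40–42 hours post-invasion, 1% parasitemia, 2.5% hematocrit, AlbuMAX-supplemented RPMI) were exposed to 1, 3 or 10 µM compound, after which rings were counted by Hoechst 33342 flow cytometry across three experiments.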

[4] = tested on: Toxoplasma gondii RH tachyzoites; assay: median egress time after A23187 ionophore; higher = stronger egress inhibition; settings: 10 µM; pretreatment time: 24 h
Experimental: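 T. gondii RH tachyzoites expressing firefly luciferase were grown in HFF monolayers for 48 h with compound. % growth inhibition at 10 µM and EC50 (2-fold dilutions from 10 µM) were read by luminescence relative to 1% DMSO; EC50 listed as 10 (not determined, <80% inhibition) is left out. Plaque assays: 50 tachyzoites per well with 10 µM compound for 8-10 days, giving plaque count and area by crystal violet/ImageJ. Egress: median time to egress after 1 µM A23187 ionophore following 24 h of 10 µM compound (DMSO ~1.8 min; >10 = no egress within 10 min).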

[5] = tested on: Toxoplasma gondii RH tachyzoites; assay: plaque count per well; higher = less inhibition; extreme values may be limits of the assay; settings: 10 µM; 8-10 days
Procedure, shortened: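 Fifty T. gondii RH tachyzoites were added to each well of six-well plates holding confluent HFF monolayers preseeded with compound at 10 µM. Plates were left undisturbed for 8 to 10 days, then fixed with methanol and stained with crystal violet. Plaques were imaged and counted per well with ImageJ, with untreated and 1% DMSO-treated wells as controls. Plaque count per well reflects delayed-death inhibition of parasite growth.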

[6] = tested on: Plasmodium falciparum 3D7; assay: R50 (50% reduction of ring formation, egress/invasion); higher = less potent
Experimental: (§1)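 P. falciparum asexual blood stages. EC50: sorbitol-synchronized 3D7 rings were treated with 2-fold dilutions from 10 µM for 60 h, with parasitemia read by SYBR Green I fluorescence; EC50 listed as 10 means not determined and is left out. Stage transition screen: ~40-42 hpi schizonts were treated at 1, 3 and 10 µM; new rings were counted by Hoechst flow cytometry and % inhibition is relative to DMSO controls (mean of 3 experiments). R50: concentration giving 50% reduction of new ring formation versus DMSO in 3D7, K1 and KH004-003, from flow cytometry after 12-20 h treatment of schizonts.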

[7] = tested on: Plasmodium falciparum K1 (chloroquine resistant); assay: as above
Experimental: as §1

[8] = tested on: Plasmodium falciparum KH004-003 (artemisinin resistant); assay: as above
Experimental: as §1

[9] = target: Toxoplasma gondii RH tachyzoites; assay: EC50 growth inhibition (48 h luciferase)
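For % growth inhibition vs DMSO (48 h luciferase) in this document: tested in triplicate wells of 96-well plates on confluent HFF monolayers, with 1% DMSO wells as negative control in four replicates.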

SMILES | EC50 growth inhibition [1] | % growth inhibition [2] | % inhibition of schizont-to-ring transition ([3]; 1 µM) | % inhibition of schizont-to-ring transition ([3]; 3 µM) | % inhibition of schizont-to-ring transition ([3]; 10 µM) | median egress time [4] | plaque count per well [5] | R50 [6] | R50 [7] | R50 [8] | EC50 growth inhibition [9]
OC(CNC1CCCCC1)Cn1c2ccc(I)cc2c2cc(I)ccc21 (configuration not stated) | 591 nM | < 0% | 39.7% | 69% | 73.8% | 1.33 min | 3 |  |  |  | 
COc1ccc(CCn2c(=N)c(C(=O)NCc3cccnc3)cc3c(=O)n4cccc(C)c4nc32)cc1 | 353 nM | 75.9 ± 1.6% | 40.3% | 65.1% | 66.9% | 2.13 min |  | 2.26 µM | 2.1 µM | 0.771 µM | 
Cc1cc(NC(=O)C2c3ccccc3C(=O)N(CC(C)C)C2c2cccs2)no1 (configuration not stated) | 64 nM | < 0% | 76.6% | 76.8% | 78.6% | 5.73 min | 29 | 0.363 µM | 0.307 µM | 0.43 µM | 
Cn1c(C(=O)c2cccc3ccccc23)nc2ccccc21 | 147 nM | 9.52 ± 8.7% | 53% | 65.5% | 70.2% | 2.4 min | 24 |  |  |  | 
COc1ccc(NC(=O)C2c3ccccc3C(=O)N(CC(C)C)C2c2cccs2)cc1Cl (configuration not stated) | 1040 nM | < 0% | 75.7% | 74.9% | 78.9% |  | 28 | 0.156 µM | 0.183 µM | 0.204 µM | 
CC1(c2ccccc2)Nc2ccccc2-c2nc3ccccc3n21 (configuration not stated) | 194 nM | 24.3 ± 8% | 56.1% | 77.5% | 79% | 4.13 min |  | 0.768 µM | 0.955 µM | 0.275 µM | 
CCCC(c1nnnn1C1CCCCC1)N1CCN(C(=O)c2ccco2)CC1 (configuration not stated) | 1470 nM | 9.52 ± 8.7% | 9.2% | 14.6% | 32.1% | 2.4 min | 24 |  |  |  | 
Cc1cc(Nc2ccc(C)c(Cl)c2)n2nc(C(F)(F)F)nc2n1 | 12.5 nM | 23.8 ± 9.5% | 51.6% | 56.6% | 65.1% | 2.46 min |  | 0.274 µM | 0.212 µM | 0.1 µM | 
CN1CCN(c2ccc(Nc3c4ccccc4nc4ccccc34)cc2)CC1 | 59.9 nM | 100 ± 0.36% | 68.6% | 75.5% | 77.1% |  |  | 1.39 µM | 1.94 µM | 0.883 µM | 2320 nM
COc1cccc(C2(C)Nc3ccccc3-c3nc4ccccc4n32)c1 (configuration not stated) | 217 nM | 12.6 ± 12% | 66% | 81.1% | 81.2% | > 10 min | 21 | 1.13 µM | 1.17 µM | 0.715 µM | 
Oc1ccccc1CN1CCC2(CCCN(Cc3ccccc3F)C2)C1 (configuration not stated) | 1140 nM | < 0% | 31.4% | 37.7% | 60.6% | 2.13 min | 26 |  |  |  | 
COc1cccc(O)c1CN1CCC2(CCCN(Cc3ccc(F)cc3)C2)C1 (configuration not stated) | 409 nM | 79.6 ± 3.5% | 42.2% | 68.4% | 72.4% |  |  | 1.91 µM | 0.805 µM | 1.23 µM | 
O=C(NC1CCN(Cc2ccccc2)CC1)c1cc(C(=O)NC2CCN(Cc3ccccc3)CC2)cc(C(=O)NC2CCN(Cc3ccccc3)CC2)c1 | 1670 nM | 18.9 ± 16% | 25.8% | 30.4% | 53.7% | 2.33 min | 35 | 3.38 µM | 0.179 µM | 1.42 µM | 
COc1ccc2c(c1)C1(Nc3ccccc3-c3nc4ccccc4n31)C(=O)N2 (configuration not stated) | 138 nM | 47.3 ± 3.5% | 62% | 64.1% | 68.6% | 2.33 min |  | 0.892 µM | 0.768 µM | 0.922 µM | 
Cc1sc2ncnc(Sc3nc4ccccc4[nH]3)c2c1C | 860 nM | 95.05 ± 0.6% | 47.8% | 59.6% | 77.8% |  |  | 2.43 µM | 1.69 µM | 0.464 µM | 2950 nM
CCOC(=O)c1c(NC(=O)c2ccccc2)sc2c(O)c(CN(CC)CC)ccc12 | 8.57 nM | 65.8 ± 12% | 57.2% | 69.3% | 71.9% | 2.13 min |  | 0.186 µM | 0.103 µM | 0.138 µM | 
COc1ccccc1C(=O)ON=C(N)Cc1cccc2ccccc12 | 244 nM | 73.6 ± 2.5% | 12% | 43.7% | 78.8% |  |  | 3.9 µM | 3.93 µM | 1.25 µM | 
CNCCCNc1ccnc2cc(Cl)ccc12 | 25.8 nM | 21.4 ± 19% | 61.4% | 66.5% | 71.6% | 2.4 min |  | 0.345 µM | 4.11 µM | 3.81 µM | 
CCN(Cc1ccccc1)C1CCN(Cc2cc(Br)ccc2O)CC1 | 310 nM | < 0% | 59.3% | 74.2% | 76.9% | > 10 min | 24 | 0.998 µM | 0.491 µM | 0.532 µM | 
COc1cccc(-c2nn(C)c3sc(C(=O)NCCN4CCN(c5ccccc5F)CC4)cc23)c1 | 4200 nM | 1.85 ± 3.2% | 12.9% | 36.3% | 60.8% | 2.93 min | 31 |  |  |  | 
